Laboratory results published in US6479435B1, “Diaryl ethers and processes for their preparation and herbicidal and desiccant compositions containing them” (ISK Americas Incorporated, priority 1997, dated 2002).

Assays:
Format in all cases: in vivo
[1] = tested on: upland rice (Oryza sp., var.Tebonnet, RICE); test: Post-emerge greenhouse test, crop damage rating; conditions: 14 days after application, scale 0-100
Method in brief: (§1)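 Plants at the 2-3 leaf stage, sown 8-21 days earlier, were track-sprayed post-emergence with compound in acetone plus 0.25% v/v non-ionic surfactant at 63-1000 g ai/ha (187 l/ha). Damage was rated at 14 days on a 0-100 scale (0 none, 100 all plants dead), for both crop injury and weed control.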

[2] = tested on: field corn (Zea mays L., var. Dekalb 535, CORN); test: Post-emerge greenhouse test, crop damage rating; conditions: 14 days after application, scale 0-100
Method in brief: as §1

[3] = tested on: soybean (Glycine max L., var. Pella 86, SOY); test: Post-emerge greenhouse test, crop damage rating; design: key to crop damage rating SOY: 0-100 scale: 0 = no damage, 100 = complete death of all plants; conditions: 14 days after application, scale 0-100
Method in brief: as §1

[4] = tested on: upland rice (Oryza sp., var.Tebonnet, RICE); test: Pre-emerge greenhouse test, crop damage rating; conditions: 14 days after application, rating scale 0-100
Method in brief: (§2)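 Seeds sown in sandy loam one day before track-sprayer application of acetone solutions at 125–1000 g ai/ha (187 l/ha), then surface-watered to incorporate and bottom-watered. Injury scored visually at 14 days on a 0–100 scale (0 no damage, 100 complete death).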

[5] = tested on: field corn (Zea mays L., var. Dekalb 535, CORN); test: Pre-emerge greenhouse test, crop damage rating; conditions: 14 days after application, rating scale 0-100
Method in brief: as §2

[6] = tested on: common ragweed (Ambrosia artemisiifolia L., AMBEL); test: Post-emerge greenhouse herbicide test, phytotoxicity rating; conditions: 14 days after application, scale 0-100
Method in brief: as §1

[7] = tested on: common ragweed (Ambrosia artemisiifolia L., AMBEL); test: Pre-emerge greenhouse herbicide test, phytotoxicity rating; conditions: 14 days after application, rating scale 0-100
Method in brief: as §2

[8] = tested on: large crabgrass (Digitaria sanguinalis, DIGSA); test: as above; conditions: 14 days after application, rating scale 0-100
Method in brief: as §2

[9] = tested on: redroot pigweed (Amaranthus retroflexus, AMARE); test: as above; conditions: 14 days after application, rating scale 0-100
Method in brief: as §2

[10] = tested on: barnyardgrass (Echinochloa crusgalli, ECHCG); test: as above; conditions: 14 days after application, rating scale 0-100
Method in brief: as §2

[11] = tested on: green foxtail (Setaria viridis, SETVI); test: as above; conditions: 14 days after application, rating scale 0-100
Method in brief: as §2

[12] = tested on: Johnsongrass (Sorghum halepense, SORHA); test: as above; conditions: 14 days after application, rating scale 0-100
Method in brief: as §2

[13] = tested on: sicklepod (Cassia obtusifolia, CASOB); test: as above; conditions: 14 days after application, rating scale 0-100
Method in brief: as §2

[14] = tested on: ivyleaf morningglory (Ipomoea hederacea, IPOHE); test: as above; conditions: 14 days after application, rating scale 0-100
Method in brief: as §2

[15] = tested on: lambsquarters (Chenopodium album, CHEAL); test: as above; conditions: 14 days after application, rating scale 0-100
Method in brief: as §2

[16] = tested on: velvetleaf (Abutilon theophrasti, ABUTH); test: as above; conditions: 14 days after application, rating scale 0-100
Method in brief: as §2

[17] = tested on: soybean (Glycine max L., var. Pella 86, SOY); test: Pre-emerge greenhouse test, crop damage rating; design: key to SOY crop damage rating: 0 = no damage, 100 = complete death of all plants; conditions: 14 days after application, rating scale 0-100
Method in brief: as §2

[18] = tested on: large crabgrass (Digitaria sanguinalis, DIGSA); test: Post-emerge greenhouse herbicide test, phytotoxicity rating; conditions: 14 days after application, scale 0-100
Method in brief: as §1

[19] = tested on: redroot pigweed (Amaranthus retroflexus, AMARE); test: as above; conditions: 14 days after application, scale 0-100
Method in brief: as §1

[20] = tested on: barnyardgrass (Echinochloa crusgalli, ECHCG); test: as above; conditions: 14 days after application, scale 0-100
Method in brief: as §1

[21] = tested on: green foxtail (Setaria viridis, SETVI); test: as above; conditions: 14 days after application, scale 0-100
Method in brief: as §1

[22] = tested on: Johnsongrass (Sorghum halepense, SORHA); test: as above; conditions: 14 days after application, scale 0-100
Method in brief: as §1

[23] = tested on: ivyleaf morningglory (Ipomoea hederacea, IPOHE); test: as above; conditions: 14 days after application, scale 0-100
Method in brief: as §1

[24] = tested on: lambsquarters (Chenopodium album, CHEAL); test: as above; conditions: 14 days after application, scale 0-100
Method in brief: as §1

[25] = tested on: velvetleaf (Abutilon theophrasti, ABUTH); test: as above; conditions: 14 days after application, scale 0-100
Method in brief: as §1

O=c1n(-c2cc(Oc3ncc([N+](=O)[O-])s3)c(Cl)cc2F)c(=S)n2n1CCCC2 [Compound 8-36]
90: crop damage rating SOY ([3]; rate 250 g ai/ha) | AMBEL phytotoxicity rating ([7]; Rate 125 g al/ha) | CASOB phytotoxicity rating ([13]; Rate 125 g al/ha) | IPOHE phytotoxicity rating ([14]; Rate 125 g al/ha) | phytotoxicity rating SORHA ([22]; rate 250 g ai/ha)
80: DIGSA phytotoxicity rating ([8]; Rate 250 g al/ha) | SETVI phytotoxicity rating ([11]; Rate 125 g al/ha)
99: SETVI phytotoxicity rating ([11]; Rate 250 g al/ha) | phytotoxicity rating CHEAL ([24]; rate 250 g ai/ha)
95: phytotoxicity rating IPOHE ([23]; rate 250 g ai/ha) | phytotoxicity rating CHEAL ([24]; rate 63 g ai/ha)
70: RICE crop damage rating ([4]; Rate 250 g al/ha) | DIGSA phytotoxicity rating ([8]; Rate 125 g al/ha) | ECHCG phytotoxicity rating ([10]; Rate 250 g al/ha) | CASOB phytotoxicity rating ([13]; Rate 250 g al/ha) | IPOHE phytotoxicity rating ([14]; Rate 250 g al/ha)
100: AMBEL phytotoxicity rating ([7]; Rate 250 g al/ha) | AMARE phytotoxicity rating ([9]; Rate 125 g al/ha) | AMARE phytotoxicity rating ([9]; Rate 250 g al/ha) | CHEAL phytotoxicity rating ([15]; Rate 125 g al/ha) | CHEAL phytotoxicity rating ([15]; Rate 250 g al/ha) | ABUTH phytotoxicity rating ([16]; Rate 125 g al/ha) | ABUTH phytotoxicity rating ([16]; Rate 250 g al/ha) | SOY crop damage rating ([17]; Rate 250 g al/ha) | phytotoxicity rating AMARE ([19]; rate 63 g ai/ha) | phytotoxicity rating AMARE ([19]; rate 250 g ai/ha) | phytotoxicity rating IPOHE ([23]; rate 63 g ai/ha) | phytotoxicity rating ABUTH ([25]; rate 63 g ai/ha) | phytotoxicity rating ABUTH ([25]; rate 250 g ai/ha)
10: crop damage rating CORN ([2]; rate 63 g ai/ha) | crop damage rating CORN ([2]; rate 250 g ai/ha)
20: CORN crop damage rating ([5]; Rate 250 g al/ha) | phytotoxicity rating AMBEL ([6]; rate 63 g ai/ha) | phytotoxicity rating AMBEL ([6]; rate 250 g ai/ha) | SORHA phytotoxicity rating ([12]; Rate 125 g al/ha)
60: phytotoxicity rating DIGSA ([18]; rate 250 g ai/ha)
50: SORHA phytotoxicity rating ([12]; Rate 250 g al/ha) | phytotoxicity rating ECHCG ([20]; rate 63 g ai/ha)
40: crop damage rating RICE ([1]; rate 63 g ai/ha) | phytotoxicity rating ECHCG ([20]; rate 250 g ai/ha)
0: CORN crop damage rating ([5]; Rate 125 g al/ha) | ECHCG phytotoxicity rating ([10]; Rate 125 g al/ha) | SOY crop damage rating ([17]; Rate 125 g al/ha) | phytotoxicity rating SETVI ([21]; rate 63 g ai/ha)
30: crop damage rating RICE ([1]; rate 250 g ai/ha) | crop damage rating SOY ([3]; rate 63 g ai/ha) | RICE crop damage rating ([4]; Rate 125 g al/ha) | phytotoxicity rating DIGSA ([18]; rate 63 g ai/ha) | phytotoxicity rating SETVI ([21]; rate 250 g ai/ha) | phytotoxicity rating SORHA ([22]; rate 63 g ai/ha)
